Some results are limits rather than exact numbers.

PIK3CG (human), sequence (P48736 whole entry, looked up): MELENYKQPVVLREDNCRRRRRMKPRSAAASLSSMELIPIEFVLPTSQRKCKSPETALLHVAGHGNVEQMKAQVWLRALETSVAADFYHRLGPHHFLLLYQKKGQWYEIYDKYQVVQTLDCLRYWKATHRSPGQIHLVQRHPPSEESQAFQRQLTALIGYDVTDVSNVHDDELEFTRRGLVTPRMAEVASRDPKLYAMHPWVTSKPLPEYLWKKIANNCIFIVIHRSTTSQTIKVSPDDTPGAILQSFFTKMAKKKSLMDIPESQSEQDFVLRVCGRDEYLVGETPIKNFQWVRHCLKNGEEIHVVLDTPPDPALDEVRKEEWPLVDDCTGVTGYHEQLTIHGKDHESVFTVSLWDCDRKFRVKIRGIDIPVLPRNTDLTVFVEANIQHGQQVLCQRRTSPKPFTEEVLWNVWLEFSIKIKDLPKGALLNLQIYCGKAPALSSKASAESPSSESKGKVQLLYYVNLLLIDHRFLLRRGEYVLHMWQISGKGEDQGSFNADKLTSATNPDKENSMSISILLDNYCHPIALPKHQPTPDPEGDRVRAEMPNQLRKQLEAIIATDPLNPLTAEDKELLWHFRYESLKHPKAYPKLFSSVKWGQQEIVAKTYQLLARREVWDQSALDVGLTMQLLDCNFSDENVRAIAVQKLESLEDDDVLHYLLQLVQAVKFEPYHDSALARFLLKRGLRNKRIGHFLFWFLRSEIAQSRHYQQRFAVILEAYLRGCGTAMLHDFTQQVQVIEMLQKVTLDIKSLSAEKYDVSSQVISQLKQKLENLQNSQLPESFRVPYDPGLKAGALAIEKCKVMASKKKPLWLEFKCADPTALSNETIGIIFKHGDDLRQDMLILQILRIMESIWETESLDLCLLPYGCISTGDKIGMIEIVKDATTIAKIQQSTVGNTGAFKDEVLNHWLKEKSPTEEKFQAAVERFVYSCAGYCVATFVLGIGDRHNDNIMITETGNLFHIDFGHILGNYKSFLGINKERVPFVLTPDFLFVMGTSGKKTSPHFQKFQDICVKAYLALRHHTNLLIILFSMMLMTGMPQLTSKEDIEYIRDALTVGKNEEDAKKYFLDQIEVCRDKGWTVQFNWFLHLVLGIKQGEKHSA

The target in the first experiment is PIK3CB (Human) (UniProt P42338). Nature of the experiment: Enzyme Assay.
PIK3CB (Human), sequence (P42338 whole entry, looked up): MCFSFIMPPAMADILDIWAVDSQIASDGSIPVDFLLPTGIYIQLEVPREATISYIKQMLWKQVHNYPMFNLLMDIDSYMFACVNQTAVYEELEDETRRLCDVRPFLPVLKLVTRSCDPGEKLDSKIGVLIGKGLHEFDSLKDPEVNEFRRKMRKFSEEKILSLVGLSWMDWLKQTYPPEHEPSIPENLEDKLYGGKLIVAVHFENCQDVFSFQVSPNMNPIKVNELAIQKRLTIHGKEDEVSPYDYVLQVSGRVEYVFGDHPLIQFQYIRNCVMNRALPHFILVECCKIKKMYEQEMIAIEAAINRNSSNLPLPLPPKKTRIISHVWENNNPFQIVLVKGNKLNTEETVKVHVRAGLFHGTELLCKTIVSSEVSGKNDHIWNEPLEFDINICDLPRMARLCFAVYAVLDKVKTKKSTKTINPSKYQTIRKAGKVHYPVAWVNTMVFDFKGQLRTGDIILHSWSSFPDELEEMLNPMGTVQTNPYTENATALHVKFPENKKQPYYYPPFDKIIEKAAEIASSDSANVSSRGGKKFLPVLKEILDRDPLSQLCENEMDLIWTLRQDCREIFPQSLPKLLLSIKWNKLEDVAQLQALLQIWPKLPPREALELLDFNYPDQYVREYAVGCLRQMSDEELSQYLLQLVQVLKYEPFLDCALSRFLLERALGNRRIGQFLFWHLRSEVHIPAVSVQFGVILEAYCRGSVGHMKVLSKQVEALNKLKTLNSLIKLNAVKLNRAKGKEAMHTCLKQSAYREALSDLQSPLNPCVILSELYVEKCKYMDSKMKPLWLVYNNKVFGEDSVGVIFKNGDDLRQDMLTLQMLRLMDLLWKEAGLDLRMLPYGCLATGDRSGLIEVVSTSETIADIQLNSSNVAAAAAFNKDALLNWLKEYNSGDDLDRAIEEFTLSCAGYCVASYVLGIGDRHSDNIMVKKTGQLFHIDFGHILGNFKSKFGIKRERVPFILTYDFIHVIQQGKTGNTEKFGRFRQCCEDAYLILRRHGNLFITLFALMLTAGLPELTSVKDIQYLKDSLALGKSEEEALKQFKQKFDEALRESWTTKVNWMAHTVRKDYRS
What is called IC50 is the midpoint of a concentration-inhibition curve. A lower IC50 goes with greater potency. Take `C[C@H](Nc1nc(N)nc(N)c1C#N)c1nc2cccc(Cl)c2c(=O)n1C[C@@H]1CCCNC1`: the IC50 was 0.079 µM.
On the same count and under the same terms, under `C[C@H](Nc1nc(N)nc(N)c1C#N)c1nc2cccc(Cl)c2c(=O)n1C[C@H]1CCCNC1` stands 0.088 µM.
`C[C@H](Nc1ncnc(N)c1C#N)c1nc2cccc(Cl)c2c(=O)n1CCN1CCN(C)CC1` returned an IC50 of 0.34 µM.

The target in another experiment is PIK3CD (Human) (UniProt O00329). Nature of the experiment: Enzyme Assay.
PIK3CD (Human), sequence (O00329 whole entry, looked up): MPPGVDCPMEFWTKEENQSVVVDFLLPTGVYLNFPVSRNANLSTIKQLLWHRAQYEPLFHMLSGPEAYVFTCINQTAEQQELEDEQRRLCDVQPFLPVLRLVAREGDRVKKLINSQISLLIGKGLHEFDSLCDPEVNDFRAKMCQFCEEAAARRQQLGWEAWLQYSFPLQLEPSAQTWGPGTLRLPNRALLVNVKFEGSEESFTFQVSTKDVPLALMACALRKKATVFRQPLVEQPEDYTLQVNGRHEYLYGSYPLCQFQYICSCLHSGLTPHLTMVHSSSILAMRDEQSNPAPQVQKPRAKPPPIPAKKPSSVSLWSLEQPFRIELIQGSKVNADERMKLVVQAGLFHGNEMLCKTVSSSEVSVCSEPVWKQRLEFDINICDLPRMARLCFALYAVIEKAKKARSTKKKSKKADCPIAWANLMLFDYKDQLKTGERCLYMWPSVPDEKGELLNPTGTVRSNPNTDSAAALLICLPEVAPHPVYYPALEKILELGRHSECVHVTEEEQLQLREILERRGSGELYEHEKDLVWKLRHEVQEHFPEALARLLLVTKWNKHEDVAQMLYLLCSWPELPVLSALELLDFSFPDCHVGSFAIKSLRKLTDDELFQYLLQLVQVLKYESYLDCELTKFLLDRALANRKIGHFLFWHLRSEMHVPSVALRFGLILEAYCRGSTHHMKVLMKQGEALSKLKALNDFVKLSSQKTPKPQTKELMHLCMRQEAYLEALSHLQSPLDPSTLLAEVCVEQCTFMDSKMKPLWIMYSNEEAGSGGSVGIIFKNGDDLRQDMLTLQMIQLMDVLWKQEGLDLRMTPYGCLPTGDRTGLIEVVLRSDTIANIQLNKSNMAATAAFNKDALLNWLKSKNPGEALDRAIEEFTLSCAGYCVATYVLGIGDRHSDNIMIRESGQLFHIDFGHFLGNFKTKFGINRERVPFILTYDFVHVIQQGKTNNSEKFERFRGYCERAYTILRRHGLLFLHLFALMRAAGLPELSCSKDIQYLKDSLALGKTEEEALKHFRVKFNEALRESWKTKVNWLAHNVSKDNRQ
For the compound `C[C@H](Nc1nc(N)nc(N)c1C#N)c1nc2cccc(Cl)c2c(=O)n1C[C@@H]1CCCNC1`, the IC50 was found to be 0.003 µM.
Turning to `C[C@H](Nc1nc(N)nc(N)c1C#N)c1nc2cccc(Cl)c2c(=O)n1C[C@H]1CCCNC1`, the IC50 was 0.002 µM.
Take `C[C@H](Nc1ncnc(N)c1C#N)c1nc2cccc(Cl)c2c(=O)n1CCN1CCN(C)CC1`: the IC50 is 0.011 µM.

The next experiment addresses PIK3CG (human) (UniProt P48736). As to the kind of experiment: Enzyme Assay.
Regarding `C[C@H](Nc1ncnc2scnc12)c1nc2cccc(Cl)c2c(=O)n1CCC(C)(C)N`, the IC50 was no less than 10 µM.
The same measure, in the same setting: under `COCCCn1c([C@H](C)Nc2ncnc(N)c2C#N)nc2c(Cl)ccc(Cl)c2c1=O` stands greater than 10 µM; under `N#Cc1c(N)ncnc1N[C@H](c1nc2cccc(Cl)c2c(=O)n1CCCN)C1CC1`, no less than 10 µM.
For `CNCCCn1c([C@H](C)Nc2ncnc(N)c2C#N)nc2cccc(Cl)c2c1=O`, the IC50 was no less than 10 µM.
`C[C@H](Nc1ncnc(N)c1C#N)c1nc2cccc(Cl)c2c(=O)n1CC1CCCNC1` (stereo not given in full) had an IC50 of no less than 10 µM.
For `C[C@H](Nc1ncnc(N)c1C#N)c1nc2cccc(Cl)c2c(=O)n1N(CCN)Cc1ccccc1`, the IC50 is no less than 10 µM.
In the case of `C[C@H](Nc1ncnc(N)c1C#N)c1nc2cccc(Cl)c2c(=O)n1CC1CCNCC1`, the IC50 is no less than 10 µM.
In the case of `C[C@H](Nc1ncnc(N)c1C#N)c1nc2cccc(Cl)c2c(=O)n1CC1CNCCO1` (stereo not given in full), the IC50 was no less than 10 µM.
On the same count and under the same terms, under `COCCCn1c([C@H](C)Nc2ncnc(N)c2C#N)nc2c(F)ccc(F)c2c1=O` stands no less than 10 µM; under `N#Cc1c(N)nc(N)nc1N[C@@H](c1ccccc1)c1nc2cccc(Cl)c2c(=O)n1CCCN`, no less than 10 µM.
Same read-out and setting: next, `C[C@H](Nc1ncnc(N)c1C#N)c1nc2cccc(Cl)c2c(=O)n1[C@H]1C[C@H](N)C1`: no less than 10 µM; `C[C@H](Nc1ncnc(N)c1C#N)c1nc2cccc(Cl)c2c(=O)n1CCCCN`: no less than 10 µM.
`CC(CN)n1c([C@H](C)Nc2ncnc(N)c2C#N)nc2cccc(Cl)c2c1=O` (stereo not given in full) returned an IC50 of no less than 10 µM.
Take `Nc1nc(N)c(Cl)c(N[C@H](c2nc3c(Cl)ccc(Cl)c3c(=O)n2[C@H]2C[C@@H](O)C2)C2CC2)n1`: the IC50 is no less than 10 µM.
With `C[C@H](Nc1nc(N)nc(N)c1C#N)c1nc2cccc(Cl)c2c(=O)n1N(CCN)Cc1ccccc1`, the IC50 was no less than 10 µM.
`C[C@H](Nc1ncnc(N)c1C#N)c1nc2cccc(Cl)c2c(=O)n1CCCN1CCCCC1` showed an IC50 of no less than 10 µM.
The compound `NCCCn1c([C@@H](Nc2nc(N)nc(N)c2Cl)C2CC2)nc2cccc(Cl)c2c1=O` had an IC50 of no less than 10 µM.
For the compound `C[C@H](Nc1ncnc(N)c1C#N)c1nc2cccc(Cl)c2c(=O)n1CCN1CCCC1`, the IC50 is no less than 10 µM.
For the compound `C[C@H](Nc1ncnc(N)c1Cl)c1nc2cccc(Cl)c2c(=O)n1CCCN`, the IC50 is no less than 10 µM.
The compound `CC(C)C[C@H](Nc1ncnc(N)c1C#N)c1nc2cccc(Cl)c2c(=O)n1CCCN` showed an IC50 of no less than 10 µM.
Same read-out and setting: under `C[C@H](Nc1nc(N)nc(N)c1C#N)c1nc2cccc(Cl)c2c(=O)n1C[C@@H]1CCCNC1` stands 1.3 µM; under `C[C@H](Nc1ncnc(N)c1C#N)c1nc2cccc(Cl)c2c(=O)n1CCC(C)(C)N`, no less than 10 µM; under `C[C@H](Nc1ncnc(N)c1C#N)c1nc2cccc(Cl)c2c(=O)n1CC1CCNC1` (stereo not given in full), no less than 10 µM.
Compound `C[C@H](Nc1ncnc(N)c1C#N)c1nc2cccc(Cl)c2c(=O)n1CCCN(C)C` yielded an IC50 of no less than 10 µM.
As for `C[C@H](Nc1ncnc(N)c1C#N)c1nc2cccc(Cl)c2c(=O)n1CCN`, the IC50 was no less than 10 µM.
Take `Cc1ncnc(N[C@@H](C)c2nc3cccc(Cl)c3c(=O)n2CCCN)c1C#N`: the IC50 is no less than 10 µM.
The same measure, in the same setting: next, `CC(CN)Cn1c([C@H](C)Nc2ncnc(N)c2C#N)nc2cccc(Cl)c2c1=O` (stereo not given in full): no less than 10 µM.
Take `C[C@H](Nc1ncnn2ccnc12)c1nc2cccc(Cl)c2c(=O)n1CCCN`: the IC50 was no less than 10 µM.
Still for that read-out and setting: next, `C[C@H](Nc1ncnc(N)c1C#N)c1nc2cccc(Cl)c2c(=O)n1CCCNCc1ccccc1`: no less than 10 µM.
`CC(CCN)n1c([C@H](C)Nc2ncnc(N)c2C#N)nc2cccc(Cl)c2c1=O` (stereo not given in full) came in with an IC50 of no less than 10 µM.
`C[C@H](Nc1nc(N)nc(N)c1Cl)c1nc2cccc(Cl)c2c(=O)n1CCCN` returned an IC50 of no less than 10 µM.
`C[C@H](Nc1nc(N)nc(N)c1C#N)c1nc2cccc(Cl)c2c(=O)n1CCN1CCCC1` had an IC50 of no less than 10 µM.
In turn, `C[C@H](Nc1ncnc2[nH]cnc12)c1nc2cccc(Cl)c2c(=O)n1CCCN1CCOCC1` yielded an IC50 of no less than 10 µM.
Turning to `C[C@H](Nc1ncnc(N)c1C#N)c1nc2cccc(Cl)c2c(=O)n1CC1CCCN1` (stereo not given in full), the IC50 was no less than 10 µM.
The compound `Cc1cccc2nc([C@H](C)Nc3ncnc(N)c3C#N)n(CCCN)c(=O)c12` came in with an IC50 of no less than 10 µM.
The same measure, in the same setting: under `C[C@H](Nc1ncnc(N)c1C#N)c1nc2cccc(Cl)c2c(=O)n1CC1CCCCN1` (stereo not given in full) stands no less than 10 µM.
`C[C@H](Nc1ncnc(N)c1C#N)c1nc2cccc(Cl)c2c(=O)n1C[C@@H](O)CO` yielded an IC50 of no less than 10 µM.
In turn, `C[C@H](Nc1nc(N)nc(N)c1C#N)c1nc2cccc(Cl)c2c(=O)n1C[C@H]1CCCNC1` returned an IC50 of 3.2 µM.
Same read-out and setting: next, `C[C@H](Nc1ncnc(N)c1C#N)c1nc2cccc(Cl)c2c(=O)n1N(C)CCN`: no less than 10 µM.
Compound `C[C@H](NC(=O)c1nccnc1N)c1nc2cccc(Cl)c2c(=O)n1CCCN` showed a concentration for half-maximal inhibition (IC50) of no less than 10 µM.
`NCCCn1c([C@@H](Nc2ncnn3ccnc23)C2CC2)nc2cccc(Cl)c2c1=O`: the IC50 is no less than 10 µM.
On to `C[C@H](Nc1ncnc(N)c1C#N)c1nc2cccc(Cl)c2c(=O)n1CCN1CCN(C)CC1`, for which the IC50 is no less than 10 µM.
On the same count and under the same terms, next, `C[C@H](Nc1ncnc(N)c1C#N)c1nc2cccc(Cl)c2c(=O)n1CCCN1CCN(C)CC1`: no less than 10 µM.
In turn, `CC[C@H](Nc1ncnc(N)c1C#N)c1nc2cccc(Cl)c2c(=O)n1CCCN` gave an IC50 of no less than 10 µM.
